Data reported in article PMC8708390, “Fatty Acid Modification of the Anticancer Peptide LVTX-9 to Enhance Its Cytotoxicity against Malignant Melanoma Cells” (Toxins, 2021).
Where a SMILES comes first, the peptide text is derived from it. The star is where a group is joined. Arachidoyl = CCCCCCCCCCCCCCCCCCCC(=O)*; Stearoyl = CCCCCCCCCCCCCCCCCC(=O)*; Palmitoyl = CCCCCCCCCCCCCCCC(=O)*; Myristoyl = CCCCCCCCCCCCCC(=O)*; Lauroyl = CCCCCCCCCCCC(=O)*

Legend:
[1] = RP-HPLC retention time as measure of hydrophobicity; assay type: physicochemical; conditions: chromatographic, Vydac C18 300 Å 4.6 × 250 mm, 1.0 mL/min, gradient 30-100% acetonitrile/0.1% TFA, 215 nm, column 25 ± 5 °C; maximum height of peak
Experimental: Peptides were synthesized using the Fmoc SPPS methods. Briefly, the peptide LVTX-9 (AC-[…]-amide) was prepared on Rink Amide AM resin at a 0.2 mmol scale. A 4-fold excess of the Fmoc-protected amino acids was coupled with the Rink Amide AM resin using HCTU and HOBT as the activating agents in 5% NMM/DMF. After the synthesis of LVTX-9, the N-terminal Fmoc group was removed using 20% piperidine. As in the previous steps, a series of fatty acids (C12-C20) was activated in HCTU and HOBT using 5% NMM/DMF, and coupled to peptidyl resin for 2 h. Peptides were cleaved using trifluoroacetic acid (TFA)/thioanisole (TIS)/anisole (95:3:2 (v/v)) for 2.5 h, and the collected lysate was precipitated in cold diethyl ether three times. The precipitate was air-dried naturally. Next, the obtained crude products were purified using RP-HPLC (C18, 4.6 mm × 250 mm) on the basis of a 0.1% TFA/acetonitrile gradient from 30% to 100% in 46 min. Then, we collected the eluted peptides and determined the molecular mass using MALDI-TOF MS (AB, SCIEX, Waltham, MA, USA).
Figure 2 Purification and identification of five lipopeptides using RP-HPLC and MALDL-TOF MS: The purification of (A) LVTX-9-C12, (B) LVTX-9-C14, (C) LVTX-9-C16, (D) LVTX-9-C18, and (E) LVTX-9-C20 was performed using RP-HPLC (column, Vydac, C18, 300 Å, 4.6 × 250 mm). The lipopeptides were separated at a flow rate of 1.0 mL/min under a gradient of 30–100% acetonitrile/0.1% TFA. The elution of lipopeptides was monitored at 215 nm. Identification of (F) LVTX-9-C12, (G) LVTX-9-C14, (H) LVTX-9-C16, (I) LVTX-9-C18, and (J) LVTX-9-C20 by MALDI-TOF MS, respectively. The red star (*) represents the target peak. […]
Table S1. Purification gradient of peptides.
Time (min) Flow Rate (mL/min) A% B%
Wavelength: 215 nm/280 nm, column temperature: 25 ± 5 ℃, A: ddH2O (0.1% TFA), B: acetonitrile
(1 picture or pasted object on this page, not shown here)

B16-F10 cells [2] = assay: Scanning electron microscopy of cell membrane; assay type: cell-based, mouse; conditions: 5 μM, 24 h
Experimental: The morphologic changes of the cell membrane of B16-F10 cells treated with peptides were observed by SEM [14]. The cells were seeded on coverslips and placed into a six-well plate, then treated with LVTX-9 (50 μM) and LVTX-9-C18 (5 μM) for 24 h. After incubation, the B16-F10 cells were washed with sterile PBS gently three times and fixed with 2 mL of 2.5% glutaraldehyde solution in each well for 4 h at room temperature. Then, the fixed cells were dehydrated with a series of ethanol concentrations. We dried the samples with a Critical Point Dryer and coated them with gold plating before observation. A scanning electron microscope (Hitachi Su8010, Tokyo, Japan) was used to examine the prepared samples.

B16-F10 cells [3] = assay: Colony formation assay; assay type: cell-based, mouse; conditions: 1 μM, 7 days, crystal violet, mean ± SD, n = 3, control group 51 ± 12.0, p = 0.0198 vs control
Experimental: To detect the proliferation of B16-F10 cells treated with LVTX-9 and LVTX-9-C18 at low concentrations, digested cells were counted using a Cellometer K2 and seeded into a 12-well plate with approximately 100 cells per well. After 36 h, cells were treated with LVTX-9 (10 μM) and LVTX-9-C18 (1 μM), then incubated for 7 days at 37 °C in a humidified 5% CO2 atmosphere. Visible colonies were stained with 0.5% crystal violet and photographically recorded. The colony formation rates were calculated, and curves were manufactured by GraphPad prism 5.0.

B16-F10 tumor spheroids = assay: Toxicity in 3D tumor spheroids; assay type: cell-based, mouse; conditions: 20 μM, 3 days
Experimental: To further study the toxicity of LVTX-9 and LVTX-9-C18 in vitro, B16-F10 tumor spheroids, as 3D tumor models, were cultured according to protocols in the literature. Briefly, B16-F10 cells were seeded into an ultra-low attachment, 96-well, round-bottom plate (Corning) and cultured at 37 °C for 3–4 days. Then, the B16-F10 tumor spheroids were treated with 50 or 25 μM of LVTX-9 and 20 or 10 μM of LVTX-9-C18 in the RPMI-1640 supplied with 10% serum for 3 days. Subsequently, images were taken on days 0 and 3, and the cell viability was measured using a CellTiter-Glo 3D Cell Viability Assay (G9683).

B16-F10 cells [4] = assay: CCK-8 cell viability assay, B16-F10 cells; assay type: cell-based, mouse; conditions: 1 μM
Experimental: Mouse skin melanoma cells (B16-F10) were cultured in RPMI-1640 (Gibco), and mouse fibroblast cells (L-929), human lung carcinoma cells (A549), mouse breast cells (4T1), human hepatocarcinoma cells (HepG2), and human cervical carcinoma cells (Hela) were cultured in Dulbecco’s Modified Eagle Medium (DMEM, Gibco). All culture medium contained 10% fetal bovine serum (serum, Gibco), 100 U/mL of penicillin, and […] of streptomycin at 37 °C with 5% CO2.
Cell viability was quantified using a CCK-8 assay. At first, cells were seeded into a 96-well plate at approximately 2 × 10^3 cells/well. The following day, we created a 2-fold dilution series of each peptide using fresh medium (with or without 10% serum) for the treated cells, and cell viability was detected at 450 nm via a CCK-8 assay using an Absorbance Microplate Reader (BioTek Instruments, Winooski, VT, USA) following 24 h of drug incubation. The activity curves and IC50 values of the peptides were visualized using GraphPad prism 5.0.

B16-F10 cells [5] = assay: Trypan blue staining; assay type: cell-based, mouse; conditions: 5 μM, 24 h, 0.04% trypan blue 4 min
Experimental: B16-F10 cells were seeded into a 48-well plate (2 × 10^3 cells/well) for 24 h and treated with LVTX-9 (50 μM) and LVTX-9-C18 (5 μM) for 24 h. The cells were washed with PBS gently and stained with 0.04% Trypan blue for 4 min. Dead cells were stained blue.

[6] = Circular dichroism secondary structure; assay type: physicochemical; conditions: 100 µM, 25 °C, 180-280 nm
Experimental: (§1) Dynamic light scattering (DLS) of Zetasizer Nano ZSP (Malvern Instruments, Malvern, UK) apparatus was used to determine the hydrodynamic size and zeta potential of LVTX-9 and LVTX-9-C18. The peptides concentrations were diluted to 100 µM with ultrapure water with a final volume of 1 mL. The procedure ran at 25 °C, with each experiment repeated three times. The secondary structures of LVTX-9 and LVTX-9-C18 were determined to be in line with the previous protocol. The peptide concentrations were then diluted to 100 µM with ultrapure water and 100 mM of SDS was added in a final volume of 250 μL. The procedure was carried out at 25 °C. CD spectra were recorded between 180 nm and 280 nm on a Jasco J-815 CD spectrometer.

[7] = Dynamic light scattering (hydrodynamic size, PDI, zeta potential); assay type: physicochemical; conditions: 100 µM in ultrapure water, 25 °C, repeated three times
Experimental: as §1

B16-F10 cells [8] = assay: LDH leakage assay; assay type: cell-based, mouse; conditions: 12.5 μM, 24 h, absorbance 490 nm, n = 3
Experimental: At first, the B16-F10 cells were cultured in 96-well plates for 24 h at approximately 2 × 10^3 cells/well. Subsequently, the cells were treated for 24 h with LVTX-9 or LVTX-9-C18 with a series of concentration gradients. LDH leakage detection was detected using an LDH Cytotoxicity Assay Kit according to the manufacturer’s instructions (Beyotime, Shanghai, China. C0017). The absorption was measured using an Absorbance Microplate Reader (BioTek Instruments) at 490 nm. The LDH release (%) of peptides was calculated by GraphPad prism 5.0.

SMILES: CCCCCCCCCCCCCCCCCC(=O)N[C@@H](C)C(=O)N[C@@H](CO)C(=O)N[C@H](C(=O)NCC(=O)N[C@@H](C)C(=O)N[C@@H](CC(C)C)C(=O)N[C@H](C(=O)N[C@@H](CCC(N)=O)C(=O)N[C@@H](CCCCN)C(=O)N[C@@H](C)C(=O)N[C@H](C(=O)N[C@@H](C)C(=O)N[C@@H](CC(C)C)C(=O)N[C@H](C(=O)N[C@@H](CCCCN)C(=O)N[C@@H](C)C(=O)N[C@@H](CCCCN)C(=O)N[C@@H](C)C(=O)N[C@@H](C)C(N)=O)[C@@H](C)CC)[C@@H](C)CC)[C@@H](C)CC)[C@@H](C)CC [LVTX-9-C18] (Stearoyl-ASIGALIQKAIALIKAKAA-NH2)
- TR (retention time, RP-HPLC; indicates the hydrophobicity of the peptides) [1]: 41.89 min
- cell membrane morphology by SEM at 5 μM (B16-F10 cells [2]): totally disorganized or even absent
- colony number at 1 μM (B16-F10 cells [3]): 26 ± 2.9
- cell viability of B16-F10 tumor spheroids at 20 μM (B16-F10 tumor spheroids; CellTiter-Glo 3D Cell Viability Assay, n = 4, p < 0.0001): notably reduced the cell viability
- growth (volume) of B16-F10 tumor spheroids at 20 μM (B16-F10 tumor spheroids; RPMI-1640 with 10% serum, p = 0.0072): significantly suppressed
- cytotoxic effect on B16-F10 cells at 1 μM (B16-F10 cells [4]): no significant cytotoxic effect
- trypan blue staining at 5 μM (B16-F10 cells [5]): stained blue
- secondary structure (CD) in 100 mM of SDS ([6]; 100 mM SDS): α-helical conformation
- secondary structure (CD) in ultrapure water ([6]; ultrapure water): α-helical conformation
- PDI (hydrodynamic size, DLS) [7]: 0.64 ± 0.1369
- zeta potential ([7]; p = 0.0084): significantly higher than that of LVTX-9
- LDH release at 12.5 μM (B16-F10 cells [8]): ~ 40%

SMILES: CCCCCCCCCCCCCCCCCCCC(=O)N[C@@H](C)C(=O)N[C@@H](CO)C(=O)N[C@H](C(=O)NCC(=O)N[C@@H](C)C(=O)N[C@@H](CC(C)C)C(=O)N[C@H](C(=O)N[C@@H](CCC(N)=O)C(=O)N[C@@H](CCCCN)C(=O)N[C@@H](C)C(=O)N[C@H](C(=O)N[C@@H](C)C(=O)N[C@@H](CC(C)C)C(=O)N[C@H](C(=O)N[C@@H](CCCCN)C(=O)N[C@@H](C)C(=O)N[C@@H](CCCCN)C(=O)N[C@@H](C)C(=O)N[C@@H](C)C(N)=O)[C@@H](C)CC)[C@@H](C)CC)[C@@H](C)CC)[C@@H](C)CC [LVTX-9-C20] (Arachidoyl-ASIGALIQKAIALIKAKAA-NH2)
- TR (retention time, RP-HPLC; indicates the hydrophobicity of the peptides) [1]: 43.06 min

SMILES: CCCCCCCCCCCCCCCC(=O)N[C@@H](C)C(=O)N[C@@H](CO)C(=O)N[C@H](C(=O)NCC(=O)N[C@@H](C)C(=O)N[C@@H](CC(C)C)C(=O)N[C@H](C(=O)N[C@@H](CCC(N)=O)C(=O)N[C@@H](CCCCN)C(=O)N[C@@H](C)C(=O)N[C@H](C(=O)N[C@@H](C)C(=O)N[C@@H](CC(C)C)C(=O)N[C@H](C(=O)N[C@@H](CCCCN)C(=O)N[C@@H](C)C(=O)N[C@@H](CCCCN)C(=O)N[C@@H](C)C(=O)N[C@@H](C)C(N)=O)[C@@H](C)CC)[C@@H](C)CC)[C@@H](C)CC)[C@@H](C)CC [LVTX-9-C16] (Palmitoyl-ASIGALIQKAIALIKAKAA-NH2)
- TR (retention time, RP-HPLC; indicates the hydrophobicity of the peptides) [1]: 40.21 min

SMILES: CCCCCCCCCCCC(=O)N[C@@H](C)C(=O)N[C@@H](CO)C(=O)N[C@H](C(=O)NCC(=O)N[C@@H](C)C(=O)N[C@@H](CC(C)C)C(=O)N[C@H](C(=O)N[C@@H](CCC(N)=O)C(=O)N[C@@H](CCCCN)C(=O)N[C@@H](C)C(=O)N[C@H](C(=O)N[C@@H](C)C(=O)N[C@@H](CC(C)C)C(=O)N[C@H](C(=O)N[C@@H](CCCCN)C(=O)N[C@@H](C)C(=O)N[C@@H](CCCCN)C(=O)N[C@@H](C)C(=O)N[C@@H](C)C(N)=O)[C@@H](C)CC)[C@@H](C)CC)[C@@H](C)CC)[C@@H](C)CC [LVTX-9-C12] (Lauroyl-ASIGALIQKAIALIKAKAA-NH2)
- TR (retention time, RP-HPLC; indicates the hydrophobicity of the peptides) [1]: 36.52 min

SMILES: CCCCCCCCCCCCCC(=O)N[C@@H](C)C(=O)N[C@@H](CO)C(=O)N[C@H](C(=O)NCC(=O)N[C@@H](C)C(=O)N[C@@H](CC(C)C)C(=O)N[C@H](C(=O)N[C@@H](CCC(N)=O)C(=O)N[C@@H](CCCCN)C(=O)N[C@@H](C)C(=O)N[C@H](C(=O)N[C@@H](C)C(=O)N[C@@H](CC(C)C)C(=O)N[C@H](C(=O)N[C@@H](CCCCN)C(=O)N[C@@H](C)C(=O)N[C@@H](CCCCN)C(=O)N[C@@H](C)C(=O)N[C@@H](C)C(N)=O)[C@@H](C)CC)[C@@H](C)CC)[C@@H](C)CC)[C@@H](C)CC [LVTX-9-C14] (Myristoyl-ASIGALIQKAIALIKAKAA-NH2)
- TR (retention time, RP-HPLC; indicates the hydrophobicity of the peptides) [1]: 36.15 min
